Measured values taken from patent publication US10174015B2, “Substituted heterocyclic derivative, preparation method and use thereof” (Xiamen University, priority 2014, dated 2019).
Like-named read-outs stand apart in the source and are kept apart here.

Assays:
[1] = Assay on drug metabolism in rat; assay type: in vivo, SD rats; conditions: SD, plasma, iv, 30 mg/Kg via jugular vein
Source text: 50 SD rats (purchased from Shanghai SLAC Laboratory Animal Co., Ltd) were divided into 5 groups randomly, 10 rats per group. After anesthesia with ether, rat was fixed on the operating table on its back, and was shaved at the operative site of neck. After disinfection with 75% alcohol, the neck was cut about 1.5 cm longitudinally, muscle tissues and nervi vascularis surrounding trachea were separated by blunt dissection, and carotid artery was separated by blunt dissection. Ligation was performed at distal end, an artery clamp was used at proximal part, and the distance between them was about 1 cm. A small cut was made with a pair of ophthalmic scissors at proximal part close to the ligated site, and arterial duct was introduced from the small cut to the proximal part, the artery clamp was loosened, the arterial ostium was clamped with smooth forceps, whilst the arterial duct was delivered to heart ventricle. Upon the introduction of the arterial duct into heart ventricle, the blood vessel was ligated. By using the same intubation method for artery, intubation was applied to jugular veins. After intubation, a tubule filled with heparin sodium was drawn out from artery and vein, which passed through the skin under the ear of the rat and drawn out from the dorsal part skin of the neck of the rat, and the tubule was fixed well. The muscles and skin were sutured at the surgical site of the rat, and normal saline containing heparin sodium was injected from time to time via the tubule connecting the artery and the vein to prevent tubule obstruction due to blood coagulation. The rat was placed in a warm and clean cage provided with water and food, waiting for the rat to wake up naturally.
After the rat regained consciousness and acted normally, assay on metabolic stability of compounds was performed in the rat. All the agents to be injected (including compounds to be tested and control drug) were dissolved in a mixed solvent of PEG400:Tween 80:normal saline (at a volume ratio of 5:5:90), at a concentration of 5 mg/mL. The agent was injected slowly at a dose of 30 mg/Kg via the tubule drawn out from the jugular vein. After administration, the time was recorded, and blood was collected from the tubule drawn out from carotid artery at 2, 5, 10, 20, 30, 60, 240, 360, and 720 min, in an amount of 200 μL for each time. The whole blood was placed in commercially available heparin sodium blood-collecting tube (Jiangxi Jingzhi Medical Equipment Co., Ltd.), centrifuged at 1800 g for 15 min. To the supernatant plasma, 150 μL pre-cooled methanol stopping buffer (containing internal standard E8, 1 nmol/sample) was added, vertically mixed well, and then centrifuged at 4° C., 12000 g for 10 min. The supernatant was transferred to a sample vial, the target compound was detected by LC-MS/MS, and the content of the compound was calculated by virtue of standard curve.

zebrafish embryos = assay type: in vivo; conditions: for Death number (72 h): n = 30; for observation of zebrafish embryo development: 48 h; for Body length (72 h) / Hatching number (72 h) / Heartbeat (72 h) / Unhatching number (72 h) / hatching rate: zebrafish, in vivo, 72 h
Experimental: By the same method described above, zebrafish fertilized eggs were cultured. 7 Groups were set for each test compound, including 5 experimental groups relating to the test compound at different concentrations (solutions containing the test compound at different concentrations were prepared by using zebrafish embryo culture medium, wherein the concentrations were 100 mg/L, 10 mg/L, 1 mg/L, 0.1 mg/L, 0.01 mg/L), 1 solvent control group (DMSO) and 1 blank control group. The fertilized eggs were placed and cultured in a 28.5° C. incubator, a certain humidity was ensured in the culture environment. Culture medium containing a test compound was prepared, and the culture medium was added to a 96-well plate in advance, and each fertilized egg (by reference to the experimental method in OECD No. 212 document, fertilized eggs, which developed normally within 24 h after fertilization, were selected and subjected to exposure. Transparent fish eggs visible to naked eye were normally fertilized, while white fish eggs were dead and discarded. After the selection, the normally fertilized eggs had begun to divide as observed under microscope) was then independently placed in a different well, and cultured in the culture medium containing a test compound at a different concentration. Embryo development status at different stages were observed and photographed with invert microscope, including:
I. Morphological observation: the developmental states of fertilized eggs (yolk being coagulated or not, eye spot, pericardial sac being edematous or not, bloodstream being existing or not, tail development status, and the like) were observed and photographed at 48 h, 72 h, and 96 h;
II. Hatching number and death number were counted at 72 h after fertilization, and hatching rate and mortality were calculated;
III. Body length of the hatched young fishes at 72 h was measured (measured after photographing with invert microscope); […]
V. Heartbeat of young fishes (times/min) was recorded at 72 h and 96 h after fertilization (Recording method: heartbeat of young fishes could be clearly observed under microscope, and the number of heartbeats was recorded for 30 s).

hERG potassium channel = hERG potassium channel (Homo sapiens (Human), UniProt Q12809); test: hERG potassium channel automated patch clamp in CHO-hERG cells
Sequence of hERG potassium channel (Q12809 whole entry): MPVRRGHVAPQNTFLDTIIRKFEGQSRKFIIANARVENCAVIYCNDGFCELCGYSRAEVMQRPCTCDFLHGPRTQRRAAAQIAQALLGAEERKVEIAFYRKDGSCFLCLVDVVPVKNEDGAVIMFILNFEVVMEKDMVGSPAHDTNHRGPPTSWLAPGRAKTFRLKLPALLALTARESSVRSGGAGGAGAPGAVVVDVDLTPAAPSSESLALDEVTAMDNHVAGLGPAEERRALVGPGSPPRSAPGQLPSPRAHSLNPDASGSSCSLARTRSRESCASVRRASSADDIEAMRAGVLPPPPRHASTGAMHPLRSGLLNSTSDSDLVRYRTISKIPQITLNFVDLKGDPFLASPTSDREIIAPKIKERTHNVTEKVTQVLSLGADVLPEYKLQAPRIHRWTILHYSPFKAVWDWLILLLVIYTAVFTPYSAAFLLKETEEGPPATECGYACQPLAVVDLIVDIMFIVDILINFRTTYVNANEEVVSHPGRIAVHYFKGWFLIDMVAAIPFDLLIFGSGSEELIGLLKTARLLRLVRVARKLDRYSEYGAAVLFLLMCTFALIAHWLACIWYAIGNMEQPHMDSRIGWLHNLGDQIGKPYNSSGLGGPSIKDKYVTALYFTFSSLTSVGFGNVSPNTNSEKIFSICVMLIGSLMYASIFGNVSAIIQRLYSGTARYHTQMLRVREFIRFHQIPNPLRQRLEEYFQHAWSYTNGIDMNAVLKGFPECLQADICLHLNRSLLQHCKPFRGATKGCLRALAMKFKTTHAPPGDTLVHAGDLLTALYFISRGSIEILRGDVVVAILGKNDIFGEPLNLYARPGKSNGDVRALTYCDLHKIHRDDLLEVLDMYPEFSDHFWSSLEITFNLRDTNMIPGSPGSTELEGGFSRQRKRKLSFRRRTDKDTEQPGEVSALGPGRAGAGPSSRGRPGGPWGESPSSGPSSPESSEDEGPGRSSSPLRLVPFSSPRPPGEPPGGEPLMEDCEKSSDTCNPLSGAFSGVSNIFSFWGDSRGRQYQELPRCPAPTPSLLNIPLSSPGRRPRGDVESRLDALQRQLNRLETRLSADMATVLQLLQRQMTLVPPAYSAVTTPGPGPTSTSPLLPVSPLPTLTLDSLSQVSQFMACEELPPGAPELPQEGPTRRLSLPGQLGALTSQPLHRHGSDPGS
Experimental: CHO-hERG cells (purchased from ATCC) were incubated in a culture flask. When the cell density reached 60˜80%, the culture medium (Glutamax DMEM/F12 medium (Gibco, Shanghai) containing 10% fetal bovine serum) was removed. The cells were washed with 7 mL PBS once, and then digested by adding 3 mL Detachin cell dissociation buffer. After complete digestion, the resultant mixture was neutralized by adding 7 mL culture medium, and centrifuged. The supernatant was removed with a pipette, 5 mL culture medium was added to re-suspend the cells to ensure a cell density of 2˜5×10^6/mL.
Intracellular fluid and extracellular fluid were prepared as described in the following table.
A certain amount of compound was dissolved in […] at the following concentrations, to prepare the stock solution of compound. 2 μL stock solution of compound was added to 998 μL extracellular fluid, and was subjected to 5-fold serial dilution in extracellular fluid containing 0.2% DMSO to get the final concentrates to be tested.
Single cell giga-seal and formation of whole-cell mode were automatically performed by Sophion Qpatch HT fully automated cell patch clamp systems. After obtaining the whole-cell recording mode, the cell was clamped at −80 mV. The cell first underwent pre-voltage of −50 mV for 50 msec, then underwent depolarization stimulation at 20 mV for 5 sec, and then underwent repolarization at −50 mV for 5 sec, and then the voltage return to −80 mv. The cell underwent the stimulation at the voltage every 15 sec, and the data were recorded for 2 min, then extracellular fluid was administered, and then the data were recorded for 2 min. Then, the administration process begun. The concentration of a test compound started from the lowest concentration, each test concentration was administered for 2 min. […] At least three cells were tested for each concentration (n≥3). The experimental data was analyzed by XLFit software.

Q: Which results are given for `O=C(CCCCCc1ccccc1)N1CCOC1=O` [Compound 2, Phenylhexanoyl Oxazolidinone]?
A: half-life [1]: 144 min; Death number (72 h) (zebrafish embryos; 0.01 mg/L): 0; Death number (72 h) (zebrafish embryos; 0.1 mg/L): 0; Death number (72 h) (zebrafish embryos; 1 mg/L): 0; Death number (72 h) (zebrafish embryos; 10 mg/L): 0; observation of zebrafish embryo development (zebrafish embryos; 100 mg/L): no zebrafish embryos died, but phenomena such as pericardial cyst, no heartbeat, no bloodstream, no tail development and the like occurred in embryos; Death number (72 h) (zebrafish embryos; 100 mg/L): 30; Body length (72 h) (zebrafish embryos; 0.01 mg/L): 3.90 ± 0.93 mm; Hatching number (72 h) (zebrafish embryos; 0.01 mg/L): 30; Heartbeat (72 h) (zebrafish embryos; 0.01 mg/L): 124 ± 1.67 per min; Unhatching number (72 h) (zebrafish embryos; 0.01 mg/L): 0; Body length (72 h) (zebrafish embryos; 0.1 mg/L): 4.08 ± 0.09 mm; Hatching number (72 h) (zebrafish embryos; 0.1 mg/L): 30; Heartbeat (72 h) (zebrafish embryos; 0.1 mg/L): 123 ± 2.45 per min; Unhatching number (72 h) (zebrafish embryos; 0.1 mg/L): 0; Body length (72 h) (zebrafish embryos; 1 mg/L): 3.92 ± 0.10 mm; Hatching number (72 h) (zebrafish embryos; 1 mg/L): 30; Heartbeat (72 h) (zebrafish embryos; 1 mg/L): 123 ± 3.03 per min; Unhatching number (72 h) (zebrafish embryos; 1 mg/L): 0; Body length (72 h) (zebrafish embryos; 10 mg/L): 3.78 ± 0.05 mm; Hatching number (72 h) (zebrafish embryos; 10 mg/L): 28; Heartbeat (72 h) (zebrafish embryos; 10 mg/L): 117 ± 3.90 per min; Unhatching number (72 h) (zebrafish embryos; 10 mg/L): 2; hatching rate (zebrafish embryos; 10 mg/L): 93.3%; Hatching number (72 h) (zebrafish embryos; 100 mg/L): 0; Unhatching number (72 h) (zebrafish embryos; 100 mg/L): 30; IC50 (hERG potassium channel): > 40 µM

Q: With `O=C(CCCCCc1cccc(Cl)c1)N1CCOC1=O` [Compound 9, 3-Chlorophenylhexanoyl Oxazolidinone] as the compound, how does the half-life [1] read?
A: 117 min

Q: And the “Death number (72 h)” value (zebrafish embryos; 0.01 mg/L)?
A: 0

Q: And the “Death number (72 h)” value (zebrafish embryos; 0.1 mg/L)?
A: 0

Q: What about the “Death number (72 h)” value (zebrafish embryos; 1 mg/L) of the same compound?
A: 0

Q: What about the “Death number (72 h)” value (zebrafish embryos; 10 mg/L) of the same compound?
A: 0

Q: What about the “observation of zebrafish embryo development” value (zebrafish embryos; 100 mg/L) of the same compound?
A: no zebrafish embryos died, but phenomena such as pericardial cyst, no heartbeat, no bloodstream, no tail development and the like occurred in embryos

Q: What about the “Death number (72 h)” value (zebrafish embryos; 100 mg/L) of the same compound?
A: 30

Q: And the “Body length (72 h)” value (zebrafish embryos; 0.01 mg/L)?
A: 4.01 ± 0.24 mm

Q: And the “Hatching number (72 h)” value (zebrafish embryos; 0.01 mg/L)?
A: 30

Q: What about the “Heartbeat (72 h)” value (zebrafish embryos; 0.01 mg/L) of the same compound?
A: 124 ± 0.27 per min

Q: And the “Unhatching number (72 h)” value (zebrafish embryos; 0.01 mg/L)?
A: 0

Q: What about the “Body length (72 h)” value (zebrafish embryos; 0.1 mg/L) of the same compound?
A: 4.03 ± 0.62 mm

Q: And the “Hatching number (72 h)” value (zebrafish embryos; 0.1 mg/L)?
A: 30

Q: What about the “Heartbeat (72 h)” value (zebrafish embryos; 0.1 mg/L) of the same compound?
A: 124 ± 1.17 per min

Q: And the “Unhatching number (72 h)” value (zebrafish embryos; 0.1 mg/L)?
A: 0

Q: And the “Body length (72 h)” value (zebrafish embryos; 1 mg/L)?
A: 4.01 ± 0.26 mm

Q: And the “Hatching number (72 h)” value (zebrafish embryos; 1 mg/L)?
A: 30

Q: And the “Heartbeat (72 h)” value (zebrafish embryos; 1 mg/L)?
A: 124 ± 1.08 per min

Q: And the “Unhatching number (72 h)” value (zebrafish embryos; 1 mg/L)?
A: 0

Q: And the “Body length (72 h)” value (zebrafish embryos; 10 mg/L)?
A: 3.82 ± 0.44 mm

Q: What about the “Hatching number (72 h)” value (zebrafish embryos; 10 mg/L) of the same compound?
A: 28

Q: And the “Heartbeat (72 h)” value (zebrafish embryos; 10 mg/L)?
A: 117 ± 2.24 per min

Q: What about the “Unhatching number (72 h)” value (zebrafish embryos; 10 mg/L) of the same compound?
A: 2

Q: And the hatching rate (zebrafish embryos; 10 mg/L)?
A: 93.3%

Q: What about the “Hatching number (72 h)” value (zebrafish embryos; 100 mg/L) of the same compound?
A: 0

Q: What about the “Unhatching number (72 h)” value (zebrafish embryos; 100 mg/L) of the same compound?
A: 30

Q: What about the IC50 (hERG potassium channel) of the same compound?
A: > 40 µM
